Assay results taken from patent US20230391752A1, “PYRROLIDINE-3-CARBOXAMIDE DERIVATIVES AND RELATED USES” (Chulalongkorn University, priority 2020, published 2023).
pEC50: −log10 of the molar value.

What was measured:
[1] = test system: HBV; test: Effect on intrahepatic HBV DNA levels in HepG2.2.15 cells (EC50); assay type: cell-based; conditions: Hepatitis B virus, 144 h, 6 days, intrahepatic HBV DNA by qPCR, read-out: Anti-HBV DNA (EC50)
Procedure: HepG2.2.15 cells were treated with compounds, at various concentrations in 10% FCS containing medium, at 37° C. for three days. After that the medium was removed and fresh medium containing the compound was added to the cells for another 3 days. After 6 days of treatment, intrahepatic HBV DNA from cell lysates were isolated. Then qPCR reaction of DNA was performed to measure total HBV DNA levels using specific primer set. The fifty-percent effective concentrations (EC50) for HBV DNA inhibition, relative to no drug controls, was determined using nonlinear fitting curve model. EC50 ranges for HBV DNA inhibition were as follows: A>0.3 μM, B=0.05-0.3 μM, C<0.05 μM (Table B).

[2] = Cytotoxicity (MTT) in HepG2.2.15 cells; assay type: cell-based; conditions: human, 6 days treatment, read-out: HepG2.1.15 cytotoxicity (CC50)
Procedure: HepG2.2.15 cells were seeded onto 96-well culture plate and allowed to adhere for 24 hours. The cells were treated with various concentrations of the compounds for 6 days. After treatment, the culture media were discarded and further incubated with serum-free media containing […] of 3-(4,5-dimethylthiazol-2-yl)-2,5-diphenyl tetrazolium bromide (MTT) for 2 hour. The resulting formazan crystals were completely dissolved in dimethyl sulfoxide (DMSO), and then measured absorbance at 570 nm using microplate reader. The concentrations of compounds producing 50% cell death (CC50) were determined from a fitting of concentration-response curve (% cell viability versus concentration) to a four-parameter equation.

[3] = target: T1, HBV core protein (Cp149) (Hepatitis B virus genotype D subtype ayw, UniProt P03146); test: HBV capsid assembly by size exclusion chromatography (SEC); assay type: biochemical; conditions: 50 μM compound, 15 μM Cp149, 16 hours at 21° C.
T1 construct: HBV core C-terminally truncated protein (HBV Cp149); made in house

[4] = test system: HBV; test: In vitro anti-HBV activity in HepG2.2.15 cell line (intracellular HBV DNA by qPCR at 1 μM); assay type: cell-based; conditions: Hepatitis B virus, 144 h; HepG2.2.15 cells, 1 μM compound, 6 days, intracellular HBV DNA as percentage compared to vehicle control (0.5% DMSO)
Outline: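 HepG2.2.15 cells given compound at 1 μM (0.5% DMSO final) for 3 days, then fresh compound-containing medium for 3 more days. After 6 days intracellular HBV DNA measured by qPCR. Expressed as % of 0.5% DMSO vehicle control and binned into letter ranges.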

T1 sequence (P03146 1-149): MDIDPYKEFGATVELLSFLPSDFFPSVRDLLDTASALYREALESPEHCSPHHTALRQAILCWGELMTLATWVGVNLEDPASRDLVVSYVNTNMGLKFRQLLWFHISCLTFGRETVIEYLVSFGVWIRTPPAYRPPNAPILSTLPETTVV

In the case of Cc1cc(NC(=O)[C@H]2CCN(C(=O)c3[nH]c4ccccc4c3Cl)C2)ccc1F [Example 2, (S)-1-(3-chloro-1H-indole-2-carbonyl)-N-(4-fluoro-3-methylphenyl)pyrrolidine-3-carboxamide], the pEC50 [1] was over 7.30, the CC50 at 6 days [2] was over 25000 nM and the “Size of induced capsids based on SEC retention times” value (from here on “Size of induced capsids based”) [3] was “capsid retention times between BAY 41-4109 and NVR 3-778”. The activity at 1 µM [4] was under 45%.

In the case of O=C(Nc1cc(F)c(F)c(F)c1)[C@H]1CCN(C(=O)c2cc3ccccc3[nH]2)C1 [Example 4, (S)-1-(1H-indole-2-carbonyl)-N-(3,4,5-trifluorophenyl)pyrrolidine-3-carboxamide], the pEC50 [1] was under 6.52, the CC50 at 6 days [2] was over 25000 nM and the “Size of induced capsids based” value [3] was “induced capsids similar in size to NVR 3-778”. For the same compound, the activity at 1 µM [4] was under 45%.

With C[C@H]1[C@@H](C(=O)Nc2cc(F)c(F)c(F)c2)CCN1C(=O)c1ccc(C#N)[nH]1 [Example 19, (2S,3S)-1-(5-cyano-1H-pyrrole-2-carbonyl)-2-methyl-N-(3,4,5-trifluorophenyl)pyrrolidine-3-carboxamide] the pEC50 [1] was 6.52 to 7.30, the CC50 at 6 days [2] was over 25000 nM and the “Size of induced capsids based” value [3] was “induced capsids similar in size to NVR 3-778”. The activity at 1 µM [4] was under 45%.

Work on O=C(Nc1ccc(F)c(Cl)c1)[C@H]1CCN(C(=O)c2[nH]c3ccccc3c2Cl)C1 [Example 41, (S)-1-(3-chloro-1H-indole-2-carbonyl)-N-(3-chloro-4-fluoro-phenyl)pyrrolidine-3-carboxamide] yielded a pEC50 [1] of 6.52 to 7.30 and an activity at 1 µM [4] of under 45%.

For N#Cc1c(C(=O)N2CC[C@H](C(=O)Nc3cc(F)c(F)c(F)c3)C2)[nH]c2ccccc12 [Example 45, (S)-1-(3-cyano-1H-indole-2-carbonyl)-N-(3,4,5-trifluorophenyl)pyrrolidine-3-carboxamide], the “Size of induced capsids based” value [3] was “induced capsids similar in size to NVR 3-778” and the activity at 1 µM [4] was 60 to 70%.

In the case of O=C(Nc1cc(F)c(F)c(F)c1)[C@H]1CCN(C(=O)c2ccc(Cl)[nH]2)C1 [Example 52, (S)-1-(5-chloro-1H-pyrrole-2-carbonyl)-N-(3,4,5-trifluorophenyl)pyrrolidine-3-carboxamide], the “Size of induced capsids based” value [3] was “induced capsids similar in size to NVR 3-778” and the activity at 1 µM [4] was 70 to 80%.

With C[C@H]1[C@@H](C(=O)Nc2ccc(F)c(C#N)c2)CCN1C(=O)c1ccc(Cl)[nH]1 [Example 65, (2S,3S)-1-(5-chloro-1H-pyrrole-2-carbonyl)-N-(3-cyano-4-fluorophenyl)-2-methylpyrrolidine-3-carboxamide] the pEC50 [1] was 6.52 to 7.30, the CC50 at 6 days [2] was over 25000 nM and the activity at 1 µM [4] was under 45%.

C[C@H]1[C@@H](C(=O)Nc2cc(F)c(F)c(F)c2)CCN1C(=O)c1nc2cccnc2[nH]1 [Example 70, (2S,3S)-1-(3H-imidazo[4,5-b]pyridine-2-carbonyl)-2-methyl-N-(3,4,5-trifluorophenyl)pyrrolidine-3-carboxamide] showed a pEC50 [1] of 6.52 to 7.30, a CC50 at 6 days [2] of over 25000 nM and an activity at 1 µM [4] of 45 to 60%.

Compound Cc1ncnc(C)c1-c1ccc(C(=O)N2CC[C@H](C(=O)Nc3cc(F)c(F)c(Cl)c3)C2)[nH]1 [Example 100, (S)—N-(3-chloro-4,5-difluorophenyl)-1-(5-(4,6-dimethylpyrimidin-5-yl)-1H-pyrrole-2-carbonyl)pyrrolidine-3-carboxamide] has a pEC50 [1] of over 7.30, a CC50 at 6 days [2] of 10000 to 25000 nM and an activity at 1 µM [4] of under 45%.

With Cc1n[nH]c(C)c1-c1ccc(C(=O)N2CC[C@H](C(=O)Nc3ccc(F)c(Cl)c3)[C@@H]2C)[nH]1 [Example 105, (2S,3S)—N-(3-chloro-4-fluorophenyl)-1-(5-(3,5-dimethyl-1H-pyrazol-4-yl)-1H-pyrrole-2-carbonyl)-2-methylpyrrolidine-3-carboxamide] the pEC50 [1] was over 7.30, the CC50 at 6 days [2] was under 10000 nM and the activity at 1 µM [4] was under 45%.

In the case of Cc1cnnc(C)c1-c1ccc(C(=O)N2CC[C@H](C(=O)Nc3ccc(F)c(C#N)c3)[C@@H]2C)[nH]1 [Example 116, (2S,3S)—N-(3-cyano-4-fluorophenyl)-1-(5-(3,5-dimethylpyridazin-4-yl)-1H-pyrrole-2-carbonyl)-2-methylpyrrolidine-3-carboxamide], the pEC50 [1] was 6.52 to 7.30, the CC50 at 6 days [2] was over 25000 nM and the activity at 1 µM [4] was 45 to 60%.

With Cc1cc(NC(=O)[C@H]2CCN(C(=O)c3ccc(-c4c(C)cnnc4C)[nH]3)C2)ccc1F [Example 117, (S)-1-(5-(3,5-dimethylpyridazin-4-yl)-1H-pyrrole-2-carbonyl)-N-(4-fluoro-3-methylphenyl)pyrrolidine-3carboxamide] the pEC50 [1] was over 7.30, the CC50 at 6 days [2] was over 25000 nM and the activity at 1 µM [4] was 45 to 60%.

Cc1cc[nH]c(=O)c1-c1ccc(C(=O)N2CC[C@H](C(=O)Nc3ccc(F)c(Cl)c3)[C@@H]2C)[nH]1 [Example 119, (2S,3S)—N-(3-chloro-4-fluorophenyl)-2-methyl-1-(5-(4-methyl-2-oxo-1,2-dihydropyridin-3-yl)-1H-pyrrole-2-carbonyl)pyrrolidine-3-carboxamide] showed a pEC50 [1] of 6.52 to 7.30, a CC50 at 6 days [2] of over 25000 nM and an activity at 1 µM [4] of under 45%.

With Cc1ncc(-c2ccc(C(=O)N3CC[C@H](C(=O)Nc4ccc(F)c(Cl)c4)[C@@H]3C)[nH]2)cn1 [Example 127, (2S,3S)—N-(3-chloro-4-fluorophenyl)-2-methyl-1-(5-(2-methylpyrimidin-5-yl)-1H-pyrrole-2-carbonyl)pyrrolidine-3-carboxamide] the pEC50 [1] was 6.52 to 7.30 and the activity at 1 µM [4] was under 45%.

For Cc1c(-c2ccc(C(=O)N3CC[C@H](C(=O)Nc4cc(F)c(F)c(F)c4)C3)[nH]2)cnc2[nH]ccc12 [Example 129, (S)-1-(5-(4-methyl-1H-pyrrolo[2,3-b]pyridin-5-yl)-1H-pyrrole-2-carbonyl)-N-(3,4,5-trifluorophenyl)pyrrolidine-3-carboxamide], the “Size of induced capsids based” value [3] was “induced capsids similar in size to NVR 3-778” and the activity at 1 µM [4] was under 45%.

In the case of Cc1ncnc(C)c1-c1ccc2cc(C(=O)N3CC[C@H](C(=O)Nc4cc(F)c(F)c(F)c4)C3)[nH]c2c1 [Example 132, (S)-1-(6-(4,6-dimethylpyrimidin-5-yl)-1H-indole-2-carbonyl)-N-(3,4,5-trifluorophenyl) pyrrolidine-3-carboxamide], the “Size of induced capsids based” value [3] was “induced capsids similar in size to NVR 3-778” and the activity at 1 µM [4] was 45 to 60%.

In the case of Cc1ncnc(C)c1-c1ccc2c(Cl)c(C(=O)N3CC[C@H](C(=O)Nc4cc(F)c(F)c(F)c4)C3)[nH]c2c1 [Example 133, (S)-1-(3-chloro-6-(4,6-dimethylpyrimidin-5-yl)-1H-indole-2-carbonyl)-N-(3,4,5-trifluorophenyl)pyrrolidine-3-carboxamide], the “Size of induced capsids based” value [3] was “capsid retention times between BAY 41-4109 and NVR 3-778” and the activity at 1 µM [4] was 45 to 60%.

In the case of Cc1ncnc(C)c1-c1ccc2c(Cl)c(C(=O)N3CC[C@H](C(=O)Nc4ccc(F)c(C#N)c4)C3)[nH]c2c1 [Example 135, (S)-1-(3-chloro-6-(4,6-dimethylpyrimidin-5-yl)-1H-indole-2-carbonyl)-N-(3-cyano-4-fluorophenyl)pyrrolidine-3-carboxamide], the pEC50 [1] was 6.52 to 7.30, the “Size of induced capsids based” value [3] was “capsid retention times between BAY 41-4109 and NVR 3-778” and the activity at 1 µM [4] was under 45%.

With Cc1nccnc1-c1ccc2c(Cl)c(C(=O)N3CC[C@H](C(=O)Nc4ccc(F)c(C#N)c4)C3)[nH]c2c1 [Example 139, (S)-1-(3-chloro-6-(3-methylpyrazin-2-yl)-1H-indole-2-carbonyl)-N-(3-cyano-4-fluorophenyl) pyrrolidine-3-carboxamide] the “Size of induced capsids based” value [3] was “capsid retention times between BAY 41-4109 and NVR 3-778” and the activity at 1 µM [4] was under 45%.

For C[C@H]1[C@@H](C(=O)Nc2ccc(F)c(C#N)c2)CCN1C(=O)c1[nH]c2cc(-c3cn[nH]c3)ccc2c1Cl [Example 141, (2S,3S)-1-(3-chloro-6-(1H-pyrazol-4-yl)-1H-indole-2-carbonyl)-N-(3-cyano-4-fluorophenyl)-2-methylpyrrolidine-3-carboxamide], the “Size of induced capsids based” value [3] was “capsid retention times between BAY 41-4109 and NVR 3-778” and the activity at 1 µM [4] was under 45%.

Cc1cc(NC(=O)[C@@H]2CN(C(=O)c3ccc(-c4c(C)n[nH]c4C)[nH]3)C[C@H]2C)ccc1F [Example 169, (3S,4S)-1-(5-(3,5-dimethyl-1H-pyrazol-4-yl)-1H-pyrrole-2-carbonyl)-N-(4-fluoro-3-methylphenyl)-4-methylpyrrolidine-3-carboxamide] showed an activity at 1 µM [4] of under 45%.

Work on Cc1ncnc(C)c1-c1ccc(C(=O)N2CC[C@H](C(=O)Nc3ccc(F)c(C4CC4)c3)[C@@H]2C)[nH]1 [Example 170, (2S,3S)—N-(3-cyclopropyl-4-fluorophenyl)-1-(5-(4,6-dimethylpyrimidin-5-yl)-1H-pyrrole-2-carbonyl)-2-methylpyrrolidine-3-carboxamide] yielded an activity at 1 µM [4] of under 45%.
